Reference: patent US8871767B2, “2-arylimidazo[1,2-B]pyridazine, 2-phenylimidazo[1,2-A]pyridine, and 2-phenylimidazo[1,2-A]pyrazine derivatives” (Hengrui (USA) Ltd., priority 2010, dated 2014)
Read-outs that look alike come from different tables or passages of the source.

Experiments:
[1] = test system: Hedgehog pathway activation on 10T1/2/Smo#3 cells (C3H10T1/2 cells transfected with human Smoothened receptor); test: Hedgehog pathway activation on 10T1/2/Smo#3 cells measured by ALP activity; format: cell-based; settings: Mus musculus, C3H 10T1/2, 10T1/2/Smo#3 cells
In short: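 C3H10T1/2 cells stably expressing human Smoothened were activated with hShh-conditioned medium (10-20%) or 500 nM SAG, with test compounds present. Pathway block read as inhibited ALP activity (4-methylumbelliferyl phosphate fluorescence); viability checked by CellTiter-Blue. IC50 values reported.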

[2] = test system: Hedgehog pathway activation (GLi-luciferase reporter) in Shh Light II reporter cells; test: Hedgehog pathway activation on Shh Light II reporter cells measured by luciferase activity; format: cell-based; settings: Mus musculus, Shh Light II
In short: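 Shh Light II reporter cells carrying a hedgehog-responsive GLi-luciferase reporter were stimulated either with 500 nM SAG, a direct Smoothened agonist, or with conditioned media containing human Sonic Hedgehog (hShh). Test compounds were evaluated for blocking this pathway activation, quantified by luciferase activity. Cell viability was monitored in parallel with the Celltiter-Blue® assay.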

[3] = measured by ALP activity, read-out: ALP (IC50, inhibition of Hedgehog pathway activation)
[4] = hShh activation, read-out: Shh (IC50, inhibition of Hedgehog pathway activation)
[5] = hShh activation, ALP activity, read-out: 10T1/2/Smo#3 ALP activity (hShh Activation)
[6] = SAG activation (500 nM SAG), read-out: Shh Light II luciferase activity (SAG activation)
[7] = hShh activation, read-out: Shh Light II luciferase activity (hShh activation)

| SMILES | IC50 [1, 3] [nM] | IC50 [2, 4] [nM] | IC50 [1, 5] [nM] | IC50 [2, 6] [nM] | IC50 [2, 7] [nM] |
| --- | --- | --- | --- | --- | --- |
| FC(F)(F)c1ccc(-c2cn3nc(Cl)ccc3n2)cc1Br [Example 203, 2-(3-bromo-4-(trifluoromethyl)phenyl)-6-chloroimidazo[1,2-b]pyridazine] | 9450 | > 10000 |  |  |  |
| CCOc1ccc2nc(-c3ccc(C(F)(F)F)c(Br)c3)cn2n1 [Example 204, 2-(3-bromo-4-(trifluoromethyl)phenyl)-6-ethoxyimidazo[1,2-b]pyridazine] | 9530 | > 10000 | 3000 to 30000 | 3000 to 30000 | 3000 to 30000 |
| Cc1ccc(-c2ccc3nc(-c4ccc(C(F)(F)F)c(NC(=O)C(C)(C)C)c4)cn3n2)c(F)c1 [Example 205, N-(5-(6-(2-fluoro-4-methylphenyl)imidazo[1,2-b]pyridazin-2-yl)-2-(trifluoromethyl)phenyl)pivalamide] | 196 | 279 |  |  |  |
| COc1cccc(-c2ccc3nc(-c4ccc(C(F)(F)F)c(NC(=O)C(C)(C)C)c4)cn3n2)c1F [Example 206, N-(5-(6-(2-fluoro-3-methoxyphenyl)imidazo[1,2-b]pyridazin-2-yl)-2-(trifluoromethyl)phenyl)pivalamide] | 246 | 341 |  |  |  |
| CC(C)(C)C(=O)Nc1cc(-c2cn3nc(-c4ccc(C(F)(F)F)cc4)ccc3n2)ccc1C(F)(F)F [Example 210, N-(2-(trifluoromethyl)-5-(6-(4-(trifluoromethyl)phenyl)imidazo[1,2-b]pyridazin-2-yl)phenyl)pivalamide] | 375 | 223 |  |  |  |
| CCOc1ccc2nc(-c3ccc(C(F)(F)F)c(C(=O)NC(C)(C)C)c3)cn2n1 [Example 211, N-tert-butyl-5-(6-ethoxyimidazo[2,1-f]pyridazin-2-yl)-2-(trifluoromethyl)benzamide] | 6960 | 1020 |  |  |  |
| CCOc1ccc2nc(-c3ccc(C(F)(F)F)c(S(=O)(=O)NC4CC4)c3)cn2n1 [Example 212, N-cyclopropyl-5-(6-ethoxyimidazo[1,2-b]pyridazin-2-yl)-2-(trifluoromethyl)benzenesulfonamide] | 5760 | > 10000 | 3000 to 30000 | 3000 to 30000 | 3000 to 30000 |
| CCOc1ccc2nc(-c3ccc(C(F)(F)F)c(S(=O)(=O)NCc4ccc(F)cc4)c3)cn2n1 [Example 213, 5-(6-ethoxyimidazo[1,2-b]pyridazin-2-yl)-N-(4-fluorobenzyl)-2-(trifluoromethyl)benzenesulfonamide] | 3860 | > 10000 |  |  |  |
| CCOc1ccc2nc(-c3ccc(C(F)(F)F)c(S(=O)(=O)NC4CCCCC4)c3)cn2n1 [Example 214, N-cyclohexyl-5-(6-ethoxyimidazo[1,2-b]pyridazin-2-yl)-2-(trifluoromethyl)benzenesulfonamide] | 1580 | > 10000 |  |  |  |
| CCOc1ccc2nc(-c3ccc(C(F)(F)F)c(S(=O)(=O)NCc4ccccc4)c3)cn2n1 [Example 215, N-benzyl-5-(6-ethoxyimidazo[1,2-b]pyridazin-2-yl)-2-(trifluoromethyl)benzenesulfonamide] | 3120 | > 10000 |  |  |  |
| CCOc1ccc2nc(-c3ccc(C(F)(F)F)c(S(=O)(=O)NC(C)(C)C)c3)cn2n1 [Example 216, N-tert-butyl-5-(6-ethoxyimidazo[1,2-b]pyridazin-2-yl)-2-(trifluoromethyl)benzenesulfonamide] | 8280 | 8570 |  |  |  |
| CCOc1ccc2nc(-c3ccc(C(F)(F)F)c(S(=O)(=O)NC)c3)cn2n1 [Example 217, 5-(6-ethoxyimidazo[1,2-b]pyridazin-2-yl)-N-methyl-2-(trifluoromethyl)benzenesulfonamide] | 535 | 6600 |  |  |  |
| CCOc1ccc2nc(-c3ccc(C(F)(F)F)c(-c4ccccn4)c3)cn2n1 [Example 218, 6-ethoxy-2-(3-(pyridin-2-yl)-4-(trifluoromethyl)phenyl)imidazo[1,2-b]pyridazine] | 2120 | 1720 | 300 to 3000 | 3000 to 30000 | 300 to 3000 |
| Cc1c(NC(=O)C(C)(C)C)cccc1-c1cn2nc(-c3ccccc3F)ccc2n1 [Example 219, N-(3-(6-(2-fluorophenyl)imidazo[1,2-b]pyridazin-2-yl)-2-methylphenyl)pivalamide] | 952 | 1260 | 300 to 3000 | 3000 to 30000 | 300 to 3000 |
| CC(C)(C)C(=O)Nc1cc(-c2cn3nc(Cc4ccccc4)ccc3n2)ccc1C(F)(F)F [Example 231, N-(5-(6-benzylimidazo[1,2-b]pyridazin-2-yl)-2-(trifluoromethyl)phenyl)pivalamide] |  | 905 | 300 to 3000 | 3000 to 30000 | 300 to 3000 |
| CC(C)(C)C(=O)Nc1cc(-c2cn3nc(N4CCOCC4)ccc3n2)ccc1C(F)(F)F [Example 232, N-(5-(6-morpholinoimidazo[1,2-b]pyridazin-2-yl)-2-(trifluoromethyl)phenyl)pivalamide] | 414 | 428 |  |  |  |
| CC1CCN(c2ccc3nc(-c4ccc(C(F)(F)F)c(NC(=O)C(C)(C)C)c4)cn3n2)CC1 [Example 233, N-(5-(6-(4-methylpiperidin-1-yl)imidazo[1,2-b]pyridazin-2-yl)-2-(trifluoromethyl)phenyl)pivalamide] | 339 | 329 |  |  |  |
| CC(C)(C)C(=O)Nc1cc(-c2cn3nc(N4CCN(S(C)(=O)=O)CC4)ccc3n2)ccc1C(F)(F)F [Example 234, N-(5-(6-(4-(methylsulfonyl)piperazin-1-yl)imidazo[1,2-b]pyridazin-2-yl)-2-(trifluoromethyl)phenyl)pivalamide] | 230 | 547 |  |  |  |

More lines, in order of falling IC50 [2, 4], values ahead:

| IC50 [1, 3] [nM] | IC50 [2, 4] [nM] | IC50 [1, 5] [nM] | IC50 [2, 6] [nM] | IC50 [2, 7] [nM] | SMILES |
| --- | --- | --- | --- | --- | --- |
| 1320 | 221 |  |  |  | Cc1c(-c2ccccn2)nn2cc(-c3ccc(C(F)(F)F)c(NC(=O)C(C)(C)C)c3)nc2c1C [Example 202, N-(5-(7,8-dimethyl-6-(pyridin-2-yl)-imidazo[1,2-b]pyridazin-2-yl)-2-(trifluoromethyl)phenyl)pivalamide] |
| 425 | 156 |  |  |  | CC(C)(C)C(=O)Nc1cc(-c2cn3nc(-c4cccc(F)c4)ccc3n2)ccc1C(F)(F)F [Example 222, N-(5-(6-(3-fluorophenyl)imidazo[1,2-b]pyridazin-2-yl)-2-(trifluoromethyl)phenyl)pivalamide] |
| 289 | 97 |  |  |  | CC(C)(C)C(=O)Nc1cc(-c2cn3nc(-c4cccc(C(F)(F)F)c4)ccc3n2)ccc1C(F)(F)F [Example 223, N-(2-(trifluoromethyl)-5-(6-(3-(trifluoromethyl)phenyl)imidazo[1,2-b]pyridazin-2-yl)phenyl)pivalamide] |
| 140 | 95 |  |  |  | CC(C)(C)C(=O)Nc1cc(-c2cn3nc(-c4ccccc4Cl)ccc3n2)ccc1C(F)(F)F [Example 208, N-(5-(6-(2-chlorophenyl)imidazo[1,2-b]pyridazin-2-yl)-2-(trifluoromethyl)phenyl)pivalamide] |
| 105 | 86 |  |  |  | Cc1ccc(-c2cn3nc(-c4cc(C(F)(F)F)ccc4F)ccc3n2)cc1NC(=O)C(C)(C)C [Example 221, N-(5-(6-(2-fluoro-5-(trifluoromethyl)phenyl)imidazo[1,2-b]pyridazin-2-yl)-2-methylphenyl)pivalamide] |
| 62 | 82 |  |  |  | CC(C)(C)C(=O)Nc1cc(-c2cn3nc(-c4cc(F)ccc4F)ccc3n2)ccc1C(F)(F)F [Example 224, N-(5-(6-(2,5-difluorophenyl)imidazo[1,2-b]pyridazin-2-yl)-2-(trifluoromethyl)phenyl)pivalamide] |
| 97 | 72 |  |  |  | CC(C)(C)C(=O)Nc1cc(-c2cn3nc(-c4ccccc4C(F)(F)F)ccc3n2)ccc1C(F)(F)F [Example 209, N-(2-(trifluoromethyl)-5-(6-(2-(trifluoromethyl)phenyl)imidazo[1,2-b]pyridazin-2-yl)phenyl)pivalamide] |
| 141 | 65 |  |  |  | CC(C)(C)C(=O)Nc1cc(-c2cn3nc(-c4cc(Cl)ccc4F)ccc3n2)ccc1C(F)(F)F [Example 227, N-(5-(6-(5-chloro-2-fluorophenyl)imidazo[1,2-b]pyridazin-2-yl)-2-(trifluoromethyl)phenyl)pivalamide] |
| 28 | 52 |  |  |  | Cc1ccc(-c2cn3nc(-c4ccccc4F)ccc3n2)cc1NC(=O)C(C)(C)C [Example 220, N-(5-(6-(2-fluorophenyl)imidazo[1,2-b]pyridazin-2-yl)-2-methylphenyl)pivalamide] |
| 65 | 48 | < 300 | 3000 to 30000 | < 300 | CC(C)(C)C(=O)Nc1cc(-c2cn3nc(-c4ccccc4C(F)(F)F)ccc3n2)ccc1C#N [Example 225, N-(2-cyano-5-(6-(2-(trifluoromethyl)phenyl)imidazo[1,2-b]pyridazin-2-yl)phenyl)pivalamide] |
| 43 | 43 | < 300 | < 300 | < 300 | CC(C)(C)C(=O)Nc1cc(-c2cn3nc(-c4cc(C(F)(F)F)ccc4F)ccc3n2)ccc1C(F)(F)F [Example 207, N-(5-(6-(2-fluoro-5-(trifluoromethyl)phenyl)imidazo[1,2-b]pyridazin-2-yl)-2-(trifluoromethyl)phenyl)pivalamide] |
